According to US20240366487A1, “ANTI-AGING COMPOSITIONS FOR SENSITIVE SKIN” (Baek Clinical Inc., priority 2023, published 2024):

Test system: skin of human subjects
Assay: Human Repeat Insult Patch Testing (HRIPT)
Type: in vivo
Conditions: positive control, 71 subjects
Description: The study duration was 6 weeks and 71 male and female subjects, ranging in age from 18 to 65, completed the study. Subjects were requested to bathe or wash as usual before arrival at the facility Patches containing the test material were then affixed directly to the skin of the intrascapular regions of the back, to the right or left of the midline and subjects were dismissed with instructions not to wet or expose the test area to direct sunlight. Patches remained in place for 48 hours after the first application. Subjects were instructed not to remove the patches prior to their 48-hour scheduled visit, thereafter, subjects were instructed to remove patches 24 hours after application for the remainder of the study. […] Prior to each reapplication, the test sites were evaluated by trained laboratory personnel. Following a 10-14 day rest period a retest/challenge dose was applied once to a previously unexposed test site. Test sites were evaluated by trained laboratory personnel 48 and 96 hours after application. In the event of a reaction, the area of erythema and edema were measured. Edema is estimated by the evaluation of the skin with respect to the contour of the unaffected normal skin. Subjects were instructed to report any delayed reactions that might occur after the final reading.

CCCCCCCCCCCCOS(=O)(=O)[O-].[Na+] [1.0% Sodium Lauryl Sulfate Solution, Sodium Lauryl Sulfate]
subjects with a Grade 1 reaction: 3 subjects
subjects with a Grade 2 reaction: 1 subject
